Results published in US5994563A, “Arylmethylphosphonic acid derivatives useful in treating bone wasting diseases” (Ortho Pharmaceutical Corporation, priority 1999, dated 1999).
Where two headings read alike, the source gives them in different places.

Columns and labels:
CD45 [1] = target: T1, CD45 (Homo sapiens, UniProt P08575); settings: read-out: IC50 (CD45)
T1 sequence (P08575 26-1306): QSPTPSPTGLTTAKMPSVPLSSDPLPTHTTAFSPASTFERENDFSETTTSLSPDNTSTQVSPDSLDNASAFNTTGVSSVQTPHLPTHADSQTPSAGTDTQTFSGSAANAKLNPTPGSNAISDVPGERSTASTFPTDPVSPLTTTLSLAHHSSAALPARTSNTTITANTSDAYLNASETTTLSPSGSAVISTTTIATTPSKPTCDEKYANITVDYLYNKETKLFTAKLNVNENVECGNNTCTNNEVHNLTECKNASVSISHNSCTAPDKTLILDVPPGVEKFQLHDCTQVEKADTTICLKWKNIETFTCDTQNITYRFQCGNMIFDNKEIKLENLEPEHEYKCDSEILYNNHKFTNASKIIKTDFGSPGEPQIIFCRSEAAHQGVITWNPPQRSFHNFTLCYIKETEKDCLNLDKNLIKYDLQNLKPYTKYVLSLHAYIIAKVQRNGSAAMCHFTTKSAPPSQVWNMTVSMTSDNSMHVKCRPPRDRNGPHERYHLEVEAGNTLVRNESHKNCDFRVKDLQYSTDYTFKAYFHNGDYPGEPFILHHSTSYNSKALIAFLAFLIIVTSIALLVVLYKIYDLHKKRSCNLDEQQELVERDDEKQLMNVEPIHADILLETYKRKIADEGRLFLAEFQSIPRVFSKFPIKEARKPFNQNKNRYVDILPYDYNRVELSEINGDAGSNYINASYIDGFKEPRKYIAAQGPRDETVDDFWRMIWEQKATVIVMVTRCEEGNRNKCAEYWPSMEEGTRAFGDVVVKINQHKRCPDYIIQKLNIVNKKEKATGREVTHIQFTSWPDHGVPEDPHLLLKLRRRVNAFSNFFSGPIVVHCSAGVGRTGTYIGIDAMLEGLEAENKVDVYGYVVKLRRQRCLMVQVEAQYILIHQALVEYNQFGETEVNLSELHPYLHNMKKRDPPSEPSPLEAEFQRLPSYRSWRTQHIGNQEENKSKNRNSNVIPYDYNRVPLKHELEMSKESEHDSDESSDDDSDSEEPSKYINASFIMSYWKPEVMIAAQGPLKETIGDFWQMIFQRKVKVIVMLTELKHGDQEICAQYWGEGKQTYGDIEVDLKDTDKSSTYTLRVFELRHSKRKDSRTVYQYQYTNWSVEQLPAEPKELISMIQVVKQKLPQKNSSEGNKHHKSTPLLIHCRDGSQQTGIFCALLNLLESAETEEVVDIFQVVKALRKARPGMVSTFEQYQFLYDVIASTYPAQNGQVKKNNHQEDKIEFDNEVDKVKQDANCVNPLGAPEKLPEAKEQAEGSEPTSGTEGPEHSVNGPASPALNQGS

[2] = system: human osteoblastic (TE85) tyrosinephosphate phosphatase; type: biochemical; settings: for IC50: read-out: TF85 IC50
[3] = system: human TE85 osteoblast-line cells; assay: Osteoblast Cell Proliferation (3H-thymidine incorporation); type: cell-based; settings: 24 h, read-out: Osteoblast Cell Prolif % X Control; for activity at 100 µM: concentration of drug 100 μM
Text: The action of select compounds to stimulate osteoblast growth can be measured in culture by assuming the rate of DNA synthesis is proportional to the rate of ^3 H-thymidine incorporation into DNA. Only cells undergoing mitosis will synthesize new DNA and thus only these cells will incorporate the radiolabelled DNA-specific thymidine. The stimulation of the proliferation and differentiation of bone-forming cells, osteoblasts, is a prerequisite for an increase in bone formation and bone mass. The ability of agents to increase osteoblast proliferation and differentiation can be predicted (reference) by their action on cultured osteoblast-line cells in vitro. In this test human TE85 osteoblast-line cells (100,000) were plated on 24 well plates in DMEM containing 5% fetal calf serum for 48 hours. After removal of the media, 0.3 mL of serum-free media containing 0.25% BSA was added to each well. After 24 hours, the treatments were added to the conditioned media for an additional 24 hours. Tritiated thymidine (0.6uCi) was added for the last two hours. After rinsing the cells with Dulbeccos PBS, the cells were released from the plate by trypsinizing with 0.25 mL trypsin (0.25%) for 5-10 min. An equal aliquot of 25% TCA was added and the cell lysate allowd to stand for 15 minutes at 4° C. The lysate was centrifuged for 10 minutes, the supernatant removed, and the pellet washed with 0.2 mL of cold 80% ethanol. After a second centrifugation, the pellet was suspended in 0.1 mL 0.1% Triton X-1 00. The pellet was then sonicated to remove all of the material from the sides of the tube. This material was placed into a scintillation vial. An additional 0.08 mL of the Triton was used to rinse the tube before placing into the vial. These mbined samples were quantitated by scintillation spectrometry.

CD45 [4] = target: T1, CD45; assay: biochemical

| Compound | IC50 [2] | other results |
| --- | --- | --- |
| O=[N+]([O-])c1ccc(Sc2ccc(Cl)cc2)c(C(O)P(=O)(O)O)c1 (centres unmarked) [Example 19, [2-(4-Chlorophenylthio)-5-nitro]phenylhydroxymethylphosphonic acid] |  | IC50 (CD45 [1]; pH 6): 28 µM; TF85 % @ 300 μM ([2]; te85 cell extract, 15 min): 95% |
| Cc1ccc(CCSc2ccc([N+](=O)[O-])cc2C(O)P(=O)(O)O)cc1 (centres unmarked) [Example 32, [2-(4-Methylphenylethylthio)-5-nitro]phenyl-hydroxymethyl phosphonic acid] |  | TF85 % @ 300 μM ([2]; te85 cell extract, 15 min): 73% |
| O=[N+]([O-])c1ccc(O)c(C(O)P(=O)(O)O)c1 (centres unmarked) [Example 7, (2-Hydroxy-5-nitro)phenylhydroxymethylphosphonic acid] | 30 µM |  |
| Cc1ccc(CSc2ccc([N+](=O)[O-])cc2C(O)P(=O)(O)O)cc1 (centres unmarked) [Example 31, [2-(4-Methyl)benzylthio-5-nitro]phenylhydroxymethylphosphonic acid] | 0.82 µM | activity at 30 µM ([3]; concentration of drug 30 μM): 159% |
| Cc1ccc(Oc2ccc([N+](=O)[O-])cc2C(O)P(=O)(O)O)cc1 (centres unmarked) [Example 14, [2-(4-Methyl)phenoxy-5-nitro]phenylhydroxymethyl phosphonic acid] |  | TF85 % @ 300 μM ([2]; te85 cell extract, 15 min): 90% |
| O=[N+]([O-])c1ccc(-c2ccccc2)c(C(O)P(=O)(O)O)c1 (centres unmarked) [Example 59, (2-Phenyl-5-nitro) phenylhydroxymethylphosphonic acid] | 10 µM |  |
| O=[N+]([O-])c1ccc(Sc2cccc(C(F)(F)F)c2)c(C(O)P(=O)(O)O)c1 (centres unmarked) [Example 20, [2-(3-Trifluoromethyl)phenylthio-5-nitro]phenylhydroxymethylphosphonic acid] | 2.4 µM | activity at 100 µM [3]: 139% |
| CCCCCCSc1ccc([N+](=O)[O-])cc1C(O)P(=O)(O)O (centres unmarked) [Example 38, [2-(1-N-hexanyl)thio-5-nitro]phenylhydroxy-methylphosphonic acid] | 1 µM |  |
| Cc1cccc(CSc2ccc([N+](=O)[O-])cc2C(O)P(=O)(O)O)c1 (centres unmarked) [Example 30, [2-(3-Methyl)benzylthio-5-nitro]phenylhydroxymethyl phosphonic acid] | 4.4 µM |  |
| O=[N+]([O-])c1cc(C(O)P(=O)(O)O)ccc1Sc1ccc(Br)cc1 (centres unmarked) [Example 54, [3-Nitro-4-(4-bromophenylthio)]phenylhydroxymethylphosphonic acid] |  | TF85 % @ 30 μM ([2]; te85 cell extract, 15 min): 75% |
| O=[N+]([O-])c1ccc(Oc2cccnc2)c(C(O)P(=O)(O)O)c1 (centres unmarked) [Example 15, [2-(3-Pyridyl)oxy-5-nitro]phenylhydroxymethyl-phosphonic acid] | 33 µM |  |
| O=[N+]([O-])c1ccc(Sc2ccccc2)c(C(O)P(=O)(O)O)c1 (centres unmarked) [Example 17, (2-Phenylthio-5-nitro)phenylhydroxymethylphosphonic acid] | 28 µM | activity at 100 µM [3]: 119% |
| Cc1ccc(C(O)P(=O)(O)O)cc1[N+](=O)[O-] (centres unmarked) [Example 52, (3-Nitro-4-methyl)phenylhydroxymethyphosphonic acid] | 30 µM |  |
| O=[N+]([O-])c1ccc(SC2CCCCC2)c(C(O)P(=O)(O)O)c1 (centres unmarked) [Example 26, (2-Cyclohexylthio-5-nitro)phenylhydroxymethylphosphonic acid] | 5.8 µM | IC50 (CD45 [1]; pH 6): 1.2 µM; activity at 100 µM [3]: 138% |
| O=Cc1ccc(OC(=O)c2ccccc2)c([N+](=O)[O-])c1 [Example 50, 3-Nitro-4-benzoyloxybenzaldehyde] | 17 µM |  |
| O=[N+]([O-])c1ccc(Cl)c(C(O)P(=O)(O)O)c1 (centres unmarked) [Example 2, (2-Chloro-5-nitro)phenylhydroxymethylphosphonic acid] | 35 µM | IC50 (CD45 [1]; enzyme from Jurkat cell (JEG-6) membranes, pH 6.0, 90 minutes at 37° C.): 20 µM |
| O=[N+]([O-])c1ccc(C(O)P(=O)(O)O)s1 (centres unmarked) [Example 43, 5-Nitro-2-thiophenehydroxymethylphosphonic acid] | 1 µM |  |
| O=[N+]([O-])c1ccc(SCCCc2ccccc2)c(C(O)P(=O)(O)O)c1 (centres unmarked) [Example 34, [2-(3-Phenylpropyl)thio-5-nitro]phenylhydroxy-methyl phosphonic acid] | 0.45 µM | activity at 100 µM [3]: 127% |
| O=C(c1cc([N+](=O)[O-])ccc1Cl)P(=O)(O)O [Example 58, (2-Chloro-5-nitro)phenyloxomethylphosphonic acid] | 5 µM |  |
| O=[N+]([O-])c1ccc(SCc2ccccc2)c(C(O)P(=O)(O)O)c1 (centres unmarked) [Example 28, (2-Benzylthio-5-nitro)phenylhydroxymethylphosphonic acid] | 6.3 µM | IC50 (CD45 [4]): 6 µM; activity at 100 µM [3]: 111% |
| Cc1ccccc1CSc1ccc([N+](=O)[O-])cc1C(O)P(=O)(O)O (centres unmarked) [Example 29, [2-(2-Methyl)benzylthio-5-nitro]phenylhydroxymethyl phosphonic acid] | 9.4 µM |  |
| O=[N+]([O-])c1cc(C(O)P(=O)(O)O)cs1 (centres unmarked) [Example 40, 2-Nitro-4-thienylhydroxymethylphosphosphonic acid] |  | IC50 (CD45 [1]; pH 6): 38 µM; TF85 % @ 300 μM ([2]; te85 cell extract, 15 min): 79% |
| CCCCCCCCCCSc1ccc([N+](=O)[O-])cc1C(O)P(=O)(O)O (centres unmarked) [Example 36, [2-(1-N-decyl)thio-5-nitro]phenylhydroxymethylphosphonic acid] | 1 µM |  |
| O=[N+]([O-])c1ccc(Oc2ccccc2)c(C(O)P(=O)(O)O)c1 (centres unmarked) [Example 12, (2-Phenoxy-5-nitro)phenylhydroxymethylphosphonic acid] | 18 µM | IC50 (CD45 [4]): 14 µM; activity at 100 µM [3]: 112% |
| O=[N+]([O-])c1cc(C(O)P(=O)(O)O)ccc1OCc1ccc(Cl)c(Cl)c1 (centres unmarked) [Example 56, [3-Nitro-4-(3,4-dichlorobenzyloxy)]phenylhydroxymethylphosphonic acid] | 30 µM |  |
| O=[N+]([O-])c1ccc(Sc2ccccn2)c(C(O)P(=O)(O)O)c1 (centres unmarked) [Example 22, [2-(2-Pyridyl)thio-5-nitro]phenylhydroxymethyl-phosphonic acid] | 14 µM | IC50 (CD45 [1]; pH 6): 1 µM |
| COc1ccccc1Sc1ccc([N+](=O)[O-])cc1C(O)P(=O)(O)O (centres unmarked) [Example 24, [2-(2-Methoxyphenylthio)-5-nitro]phenylhydroxymethylphosphonic acid] | 23 µM |  |
